Data on 21 molecules can be found in ChEMBL document CHEMBL3784917, “Recent Progress in Histone Demethylase Inhibitors” (J Med Chem, 2016).

For assay [1], the target named is Lysine-specific demethylase 6A (Homo sapiens, UniProt O15550).
Assay [2] has as its target T1, Lysine-specific demethylase 4C (Homo sapiens, UniProt Q9H3R0).
T1 sequence (Q9H3R0 whole entry): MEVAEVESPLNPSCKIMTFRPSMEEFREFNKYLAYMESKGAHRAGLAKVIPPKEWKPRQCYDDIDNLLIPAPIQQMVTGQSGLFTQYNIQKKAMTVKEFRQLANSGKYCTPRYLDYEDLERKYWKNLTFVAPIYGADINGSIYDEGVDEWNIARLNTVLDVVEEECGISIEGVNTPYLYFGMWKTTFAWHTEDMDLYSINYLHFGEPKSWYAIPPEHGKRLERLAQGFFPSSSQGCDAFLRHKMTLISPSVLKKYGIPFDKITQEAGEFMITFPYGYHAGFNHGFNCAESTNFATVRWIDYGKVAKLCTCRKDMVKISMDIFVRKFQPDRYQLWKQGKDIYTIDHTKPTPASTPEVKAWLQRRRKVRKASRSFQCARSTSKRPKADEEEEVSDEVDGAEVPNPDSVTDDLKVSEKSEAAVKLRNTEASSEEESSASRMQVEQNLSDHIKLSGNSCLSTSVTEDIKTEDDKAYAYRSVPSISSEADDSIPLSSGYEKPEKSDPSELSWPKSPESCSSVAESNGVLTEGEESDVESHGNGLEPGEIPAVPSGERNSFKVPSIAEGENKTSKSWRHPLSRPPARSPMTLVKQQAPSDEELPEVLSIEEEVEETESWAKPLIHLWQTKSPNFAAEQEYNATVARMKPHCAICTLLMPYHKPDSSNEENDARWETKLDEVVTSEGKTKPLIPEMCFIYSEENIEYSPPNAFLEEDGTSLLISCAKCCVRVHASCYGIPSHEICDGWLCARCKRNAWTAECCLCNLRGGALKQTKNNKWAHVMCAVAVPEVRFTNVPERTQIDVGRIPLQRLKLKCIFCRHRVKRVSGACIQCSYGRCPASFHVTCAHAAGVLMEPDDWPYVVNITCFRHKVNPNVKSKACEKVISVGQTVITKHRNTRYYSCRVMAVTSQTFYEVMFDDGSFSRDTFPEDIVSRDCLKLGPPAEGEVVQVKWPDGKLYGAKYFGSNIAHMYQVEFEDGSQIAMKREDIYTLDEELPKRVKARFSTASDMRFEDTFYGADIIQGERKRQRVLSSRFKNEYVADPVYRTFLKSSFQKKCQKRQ

Assay [3] addresses T2, Lysine-specific demethylase 5B (Homo sapiens, UniProt Q9UGL1).
For assay [4], the target named is T3, Lysine-specific demethylase 4A (Homo sapiens, UniProt O75164).
T3 sequence (O75164 whole entry): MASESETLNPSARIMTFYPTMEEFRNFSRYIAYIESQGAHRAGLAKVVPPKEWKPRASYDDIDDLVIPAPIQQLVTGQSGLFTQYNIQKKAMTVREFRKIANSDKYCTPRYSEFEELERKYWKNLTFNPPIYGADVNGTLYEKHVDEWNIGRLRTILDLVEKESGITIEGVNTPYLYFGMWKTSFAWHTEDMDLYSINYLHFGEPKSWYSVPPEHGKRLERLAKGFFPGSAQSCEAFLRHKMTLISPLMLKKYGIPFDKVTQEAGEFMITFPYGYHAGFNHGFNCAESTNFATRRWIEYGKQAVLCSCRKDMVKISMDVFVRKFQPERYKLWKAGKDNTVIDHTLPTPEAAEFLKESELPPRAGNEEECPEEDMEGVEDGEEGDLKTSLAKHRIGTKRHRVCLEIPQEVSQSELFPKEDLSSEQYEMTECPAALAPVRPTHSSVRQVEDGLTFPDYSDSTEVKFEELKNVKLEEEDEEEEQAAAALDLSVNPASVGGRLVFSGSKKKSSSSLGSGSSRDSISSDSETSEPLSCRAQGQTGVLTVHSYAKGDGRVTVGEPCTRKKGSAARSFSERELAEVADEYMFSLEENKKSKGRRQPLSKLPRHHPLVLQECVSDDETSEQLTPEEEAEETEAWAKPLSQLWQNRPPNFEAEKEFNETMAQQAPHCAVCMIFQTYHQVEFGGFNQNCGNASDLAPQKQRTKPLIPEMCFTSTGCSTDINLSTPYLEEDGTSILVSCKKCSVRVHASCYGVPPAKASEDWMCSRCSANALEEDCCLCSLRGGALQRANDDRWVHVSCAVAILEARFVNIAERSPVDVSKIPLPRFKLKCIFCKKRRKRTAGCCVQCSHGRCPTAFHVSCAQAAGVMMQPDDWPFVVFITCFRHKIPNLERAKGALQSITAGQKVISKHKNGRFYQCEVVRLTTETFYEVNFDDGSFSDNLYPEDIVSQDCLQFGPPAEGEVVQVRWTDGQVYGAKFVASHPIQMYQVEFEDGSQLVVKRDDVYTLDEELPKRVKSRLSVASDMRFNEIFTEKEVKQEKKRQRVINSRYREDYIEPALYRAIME

The target of assay [5] is T4, Lysine-specific demethylase 5A (Homo sapiens, UniProt P29375). As to the kind of experiment: biochemical.
T4 sequence (P29375 whole entry): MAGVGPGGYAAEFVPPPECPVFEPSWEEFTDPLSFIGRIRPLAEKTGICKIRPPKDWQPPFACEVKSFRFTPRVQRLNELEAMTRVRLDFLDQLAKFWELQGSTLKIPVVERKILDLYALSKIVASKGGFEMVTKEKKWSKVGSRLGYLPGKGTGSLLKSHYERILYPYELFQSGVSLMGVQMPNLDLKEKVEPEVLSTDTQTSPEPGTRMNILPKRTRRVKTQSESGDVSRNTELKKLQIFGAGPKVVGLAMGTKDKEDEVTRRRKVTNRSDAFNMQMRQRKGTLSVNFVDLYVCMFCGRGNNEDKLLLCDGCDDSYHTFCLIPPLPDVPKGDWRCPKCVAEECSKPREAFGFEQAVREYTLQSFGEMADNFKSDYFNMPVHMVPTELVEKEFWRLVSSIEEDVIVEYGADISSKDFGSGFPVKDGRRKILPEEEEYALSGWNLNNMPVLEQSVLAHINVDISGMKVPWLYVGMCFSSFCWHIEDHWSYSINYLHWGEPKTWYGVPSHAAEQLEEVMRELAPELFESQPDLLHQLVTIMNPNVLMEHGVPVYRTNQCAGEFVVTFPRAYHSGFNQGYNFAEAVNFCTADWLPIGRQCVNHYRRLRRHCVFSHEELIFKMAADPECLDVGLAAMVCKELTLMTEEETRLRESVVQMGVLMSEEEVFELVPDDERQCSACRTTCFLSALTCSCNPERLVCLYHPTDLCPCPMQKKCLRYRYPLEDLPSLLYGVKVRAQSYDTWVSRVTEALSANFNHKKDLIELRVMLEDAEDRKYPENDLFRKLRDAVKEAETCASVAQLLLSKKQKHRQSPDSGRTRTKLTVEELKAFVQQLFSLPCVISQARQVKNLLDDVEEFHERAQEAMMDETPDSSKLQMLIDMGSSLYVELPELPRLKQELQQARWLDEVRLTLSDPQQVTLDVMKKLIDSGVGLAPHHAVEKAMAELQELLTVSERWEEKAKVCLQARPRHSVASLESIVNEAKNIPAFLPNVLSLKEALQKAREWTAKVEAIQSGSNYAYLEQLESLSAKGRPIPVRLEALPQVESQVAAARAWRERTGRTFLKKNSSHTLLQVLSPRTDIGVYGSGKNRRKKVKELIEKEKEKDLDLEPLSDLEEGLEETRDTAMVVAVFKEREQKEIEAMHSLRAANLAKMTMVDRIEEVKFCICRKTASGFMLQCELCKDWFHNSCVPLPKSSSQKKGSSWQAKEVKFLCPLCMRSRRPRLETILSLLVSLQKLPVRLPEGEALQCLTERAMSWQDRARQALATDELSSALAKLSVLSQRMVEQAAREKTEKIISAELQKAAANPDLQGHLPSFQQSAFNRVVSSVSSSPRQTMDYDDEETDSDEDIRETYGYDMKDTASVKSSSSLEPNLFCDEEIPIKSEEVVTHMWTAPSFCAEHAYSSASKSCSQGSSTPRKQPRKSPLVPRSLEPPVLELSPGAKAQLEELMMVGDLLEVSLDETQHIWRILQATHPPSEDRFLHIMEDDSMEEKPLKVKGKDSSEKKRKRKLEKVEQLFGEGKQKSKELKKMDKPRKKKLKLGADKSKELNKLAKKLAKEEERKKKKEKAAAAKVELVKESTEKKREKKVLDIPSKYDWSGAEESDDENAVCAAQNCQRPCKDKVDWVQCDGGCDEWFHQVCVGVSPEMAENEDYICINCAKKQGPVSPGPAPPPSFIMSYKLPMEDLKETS
The target in assay [6] is T1, Lysine-specific demethylase 4C. In words: biochemical.
Assay [7] deals with T2, Lysine-specific demethylase 5B. As to the kind of experiment: biochemical.
Assay [8] addresses T4, Lysine-specific demethylase 5A.
Assay [9] deals with T2, Lysine-specific demethylase 5B. The source holds these as a separate data set.
Assay [10] deals with T5, Lysine-specific demethylase 2B (Homo sapiens, UniProt Q8NHM5).
T5 sequence (Q8NHM5 whole entry): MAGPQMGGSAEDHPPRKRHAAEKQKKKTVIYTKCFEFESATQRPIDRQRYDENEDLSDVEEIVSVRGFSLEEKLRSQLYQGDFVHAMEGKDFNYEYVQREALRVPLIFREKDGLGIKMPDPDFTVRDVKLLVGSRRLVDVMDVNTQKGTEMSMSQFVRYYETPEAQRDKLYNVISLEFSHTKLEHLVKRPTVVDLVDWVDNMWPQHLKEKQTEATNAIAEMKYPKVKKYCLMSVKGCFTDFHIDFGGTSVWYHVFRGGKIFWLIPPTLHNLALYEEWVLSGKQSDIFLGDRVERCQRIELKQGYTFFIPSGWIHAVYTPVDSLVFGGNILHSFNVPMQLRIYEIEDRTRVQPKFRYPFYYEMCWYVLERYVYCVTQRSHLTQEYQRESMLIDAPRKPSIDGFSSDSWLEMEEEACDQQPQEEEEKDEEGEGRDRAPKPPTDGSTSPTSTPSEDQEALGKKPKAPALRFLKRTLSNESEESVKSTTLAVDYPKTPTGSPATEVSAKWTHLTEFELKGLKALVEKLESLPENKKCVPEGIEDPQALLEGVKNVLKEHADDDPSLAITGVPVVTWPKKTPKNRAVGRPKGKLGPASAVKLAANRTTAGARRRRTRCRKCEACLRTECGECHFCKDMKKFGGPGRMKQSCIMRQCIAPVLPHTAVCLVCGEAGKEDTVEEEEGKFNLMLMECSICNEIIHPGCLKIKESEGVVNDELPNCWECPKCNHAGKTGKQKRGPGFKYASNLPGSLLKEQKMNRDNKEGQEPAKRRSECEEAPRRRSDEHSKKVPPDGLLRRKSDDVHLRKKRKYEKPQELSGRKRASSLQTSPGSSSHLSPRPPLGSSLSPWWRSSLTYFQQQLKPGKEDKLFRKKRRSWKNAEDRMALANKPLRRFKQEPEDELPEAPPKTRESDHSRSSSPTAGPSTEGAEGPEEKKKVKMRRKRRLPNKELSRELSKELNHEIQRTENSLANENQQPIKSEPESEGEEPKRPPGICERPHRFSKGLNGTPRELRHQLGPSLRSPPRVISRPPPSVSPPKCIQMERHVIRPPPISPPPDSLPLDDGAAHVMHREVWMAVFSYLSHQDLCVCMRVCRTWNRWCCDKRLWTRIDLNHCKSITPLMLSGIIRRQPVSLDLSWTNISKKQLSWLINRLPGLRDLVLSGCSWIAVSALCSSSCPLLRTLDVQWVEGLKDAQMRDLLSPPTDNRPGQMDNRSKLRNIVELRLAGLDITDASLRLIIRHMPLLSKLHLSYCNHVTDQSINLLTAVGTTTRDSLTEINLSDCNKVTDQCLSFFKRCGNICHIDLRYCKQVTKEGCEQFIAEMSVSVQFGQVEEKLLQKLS
As to the kind of experiment: biochemical.

The next assay is described as follows: cells. As to conditions: Homo sapiens, KYSE-150, 168 h.

T2 sequence (Q9UGL1 whole entry): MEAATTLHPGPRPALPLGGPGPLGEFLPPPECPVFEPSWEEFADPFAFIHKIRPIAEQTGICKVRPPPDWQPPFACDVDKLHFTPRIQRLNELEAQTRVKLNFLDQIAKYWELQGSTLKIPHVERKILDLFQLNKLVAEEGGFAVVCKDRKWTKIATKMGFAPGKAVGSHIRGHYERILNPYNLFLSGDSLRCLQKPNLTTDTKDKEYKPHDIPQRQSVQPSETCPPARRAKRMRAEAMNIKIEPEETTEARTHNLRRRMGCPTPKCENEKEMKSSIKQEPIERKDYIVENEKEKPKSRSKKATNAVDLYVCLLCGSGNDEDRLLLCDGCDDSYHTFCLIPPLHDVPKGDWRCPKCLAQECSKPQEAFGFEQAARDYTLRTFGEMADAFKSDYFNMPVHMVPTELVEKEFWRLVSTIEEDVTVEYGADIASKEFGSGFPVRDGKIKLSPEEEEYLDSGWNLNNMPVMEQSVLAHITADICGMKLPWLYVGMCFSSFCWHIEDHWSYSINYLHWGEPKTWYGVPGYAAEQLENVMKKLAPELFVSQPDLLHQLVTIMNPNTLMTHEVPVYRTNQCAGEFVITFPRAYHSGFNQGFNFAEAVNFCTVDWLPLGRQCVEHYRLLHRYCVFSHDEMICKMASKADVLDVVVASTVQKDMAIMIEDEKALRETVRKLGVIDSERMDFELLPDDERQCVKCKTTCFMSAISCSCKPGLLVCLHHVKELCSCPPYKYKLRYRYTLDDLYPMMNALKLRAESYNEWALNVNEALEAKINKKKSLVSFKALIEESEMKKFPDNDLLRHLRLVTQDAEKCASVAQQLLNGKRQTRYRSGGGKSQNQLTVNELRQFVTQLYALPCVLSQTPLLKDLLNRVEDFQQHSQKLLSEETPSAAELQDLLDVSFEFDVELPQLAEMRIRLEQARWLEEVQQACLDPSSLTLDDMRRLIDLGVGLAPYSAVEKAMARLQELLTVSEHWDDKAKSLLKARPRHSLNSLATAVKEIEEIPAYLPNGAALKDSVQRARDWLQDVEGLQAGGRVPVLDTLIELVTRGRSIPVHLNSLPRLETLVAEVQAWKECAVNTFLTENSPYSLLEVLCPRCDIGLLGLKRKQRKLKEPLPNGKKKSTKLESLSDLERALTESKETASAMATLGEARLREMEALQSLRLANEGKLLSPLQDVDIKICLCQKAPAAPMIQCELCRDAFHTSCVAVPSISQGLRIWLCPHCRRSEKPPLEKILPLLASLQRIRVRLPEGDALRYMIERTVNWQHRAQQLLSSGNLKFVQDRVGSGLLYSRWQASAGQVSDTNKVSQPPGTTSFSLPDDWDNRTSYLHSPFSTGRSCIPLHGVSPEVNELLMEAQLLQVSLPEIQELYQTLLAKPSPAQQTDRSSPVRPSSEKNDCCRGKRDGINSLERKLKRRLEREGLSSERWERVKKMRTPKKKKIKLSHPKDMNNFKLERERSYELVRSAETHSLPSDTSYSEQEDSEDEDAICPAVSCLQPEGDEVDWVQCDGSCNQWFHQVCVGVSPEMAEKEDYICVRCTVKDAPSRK
Sequence of Lysine-specific demethylase 6A (O15550 whole entry): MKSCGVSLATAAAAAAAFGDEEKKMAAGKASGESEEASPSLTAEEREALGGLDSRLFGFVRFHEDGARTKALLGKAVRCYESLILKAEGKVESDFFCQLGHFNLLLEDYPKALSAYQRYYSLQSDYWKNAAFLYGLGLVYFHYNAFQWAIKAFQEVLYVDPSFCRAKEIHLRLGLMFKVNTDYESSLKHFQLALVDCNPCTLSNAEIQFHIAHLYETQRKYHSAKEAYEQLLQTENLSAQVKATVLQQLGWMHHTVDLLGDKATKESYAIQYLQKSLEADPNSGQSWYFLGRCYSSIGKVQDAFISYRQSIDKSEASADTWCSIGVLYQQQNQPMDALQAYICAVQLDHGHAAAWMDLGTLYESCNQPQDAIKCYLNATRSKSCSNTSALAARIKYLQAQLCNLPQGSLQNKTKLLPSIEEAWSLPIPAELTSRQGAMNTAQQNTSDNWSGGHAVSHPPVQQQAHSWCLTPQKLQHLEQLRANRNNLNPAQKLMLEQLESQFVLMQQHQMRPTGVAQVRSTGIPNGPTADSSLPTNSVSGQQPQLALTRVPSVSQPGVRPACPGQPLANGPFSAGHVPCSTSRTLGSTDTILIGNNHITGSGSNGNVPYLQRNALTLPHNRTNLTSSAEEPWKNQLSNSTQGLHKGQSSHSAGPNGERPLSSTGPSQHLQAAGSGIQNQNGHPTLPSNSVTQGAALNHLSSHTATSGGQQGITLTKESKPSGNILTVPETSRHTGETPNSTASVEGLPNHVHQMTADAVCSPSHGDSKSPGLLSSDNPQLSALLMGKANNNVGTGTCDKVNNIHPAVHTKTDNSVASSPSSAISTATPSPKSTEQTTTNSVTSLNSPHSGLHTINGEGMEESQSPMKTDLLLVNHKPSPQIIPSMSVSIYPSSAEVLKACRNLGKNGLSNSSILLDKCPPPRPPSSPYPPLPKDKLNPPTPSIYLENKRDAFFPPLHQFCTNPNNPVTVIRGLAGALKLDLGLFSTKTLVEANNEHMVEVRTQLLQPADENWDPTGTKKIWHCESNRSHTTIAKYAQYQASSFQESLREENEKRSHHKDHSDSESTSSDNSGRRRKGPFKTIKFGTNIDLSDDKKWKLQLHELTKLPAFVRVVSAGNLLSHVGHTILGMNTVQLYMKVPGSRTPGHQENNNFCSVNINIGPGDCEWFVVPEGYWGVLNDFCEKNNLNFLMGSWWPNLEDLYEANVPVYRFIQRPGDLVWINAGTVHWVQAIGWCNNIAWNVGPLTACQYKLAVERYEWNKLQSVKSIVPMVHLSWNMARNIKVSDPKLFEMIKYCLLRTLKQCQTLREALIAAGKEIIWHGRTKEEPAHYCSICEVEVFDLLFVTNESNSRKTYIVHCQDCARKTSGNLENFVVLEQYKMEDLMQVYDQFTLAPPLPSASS

What is called IC50 is the concentration that gives 50% inhibition. A lower IC50 goes with greater potency. Turning to `O=C(O)c1ccnc(CNCc2nccn2C/C=C/c2ccccc2)c1`, the half-inhibitory concentration (IC50) in assay [1] is > 2.5 µM; in assay [2] it was > 2.5 µM; in assay [3], < 0.25 µM.

Regarding `O=C(O)c1ccnc2cc(OCc3ccc(Cl)c(OCC4CC4)c3)[nH]c12`, the IC50 in assay [4] is 1 µM; in [5], 0.1 µM; in [6], < 0.1 µM; in assay [7], < 0.1 µM.

In the case of `Cn1cnc(-c2cc(-c3nn[nH]n3)ccn2)c1`, the IC50 in [4] was > 10 µM; in assay [8], > 10 µM; in [5], 0.1 µM; in [6], > 10 µM; in assay [7] it was 0.1 µM; in assay [9] it was > 10 µM. Further, the IC50 in assay [10] is < 0.1 µM.

As to `COC(=O)c1ccnc2cc(OCc3ccc(Cl)c(OCC4CC4)c3)[nH]c12`, the half-inhibitory concentration (IC50) in “cells” was < 0.1 µM.

Turning to `Cn1nc(Nc2cnccc2C(=O)O)c2cccnc21`, the IC50 in assay [8] is 0.1 µM; in assay [5], < 0.1 µM; in assay [6], 0.1 µM; in [7], < 0.1 µM; in assay [9], 0.1 µM.

Turning to `O=C(O)c1cnnc(CNCC(=O)N2CCCCC2)c1`, the IC50 in assay [1] was > 2.5 µM; in assay [2], < 0.25 µM; in assay [3] it was < 0.25 µM.

As to `O=C(O)c1ccncc1NCC12CC3CC(CC(C3)C1)C2`, the IC50 in [5] is 0.1 µM; in [6] it was < 0.1 µM; in assay [7] it was 0.1 µM; in the assay “cells” it was > 10 µM.

Turning to `Cc1cc(Cl)ccc1COc1ccnn1-c1cc(C(=O)O)ccn1`, the 50% inhibitory concentration (IC50) in [8] was < 0.1 µM; in assay [5], < 0.1 µM; in [6] it was 0.1 µM; in assay [7], < 0.1 µM; in assay [9], < 0.1 µM; in assay [10] it was 0.1 µM.

Take `O=C(O)c1ccncc1Nc1nn(C2CCCC2)c2ccc(F)cc12`: the IC50 in assay [8] is 0.1 µM; in assay [5], < 0.1 µM; in [6], 0.1 µM; in assay [7] it was < 0.1 µM; in [9] it was 0.1 µM.

In the case of `CC(C)Cn1nc(Nc2cnccc2C(=O)NC#N)c2cc(F)ccc21`, the results for the half-inhibitory concentration (IC50) in [5], in assay [6] and in assay [7] were < 0.1 µM, 1 µM and < 0.1 µM, respectively.

Take `COc1ccc(-c2c(-c3cc(C(=O)O)ccn3)ncn2C)cc1`: the IC50 was 1 µM in [8]; 0.1 µM in [5]; 1 µM in [6]; 0.1 µM in assay [7]; 1 µM in assay [9]; 0.1 µM in assay [10].

For `O=C(O)c1ccnc(-n2nccc2OCc2ccc(Cl)cc2)c1`, the IC50 was 0.1 µM in [8]; < 0.1 µM in assay [5]; < 0.1 µM in assay [6]; < 0.1 µM in assay [7]; 0.1 µM in assay [9].

Regarding `COC(=O)c1ccnc(-n2nccc2OCc2ccc(Cl)cc2)c1`, the half-inhibitory concentration (IC50) in [8] and in assay [9] was 0.1 µM each time.

As to `COC(=O)c1ccnc2cc(OCc3ccc(Cl)c(OC(F)(F)F)c3)[nH]c12`, the IC50 in the assay “cells” was < 0.1 µM.

For the molecule `CNC(=O)c1ccnc2cc(OCc3ccc(Cl)c(OC(F)(F)F)c3)[nH]c12`, the half-inhibitory concentration (IC50) in “cells” was < 0.1 µM.

In the case of `COc1cc(COc2cc3nccc(C(=O)O)c3[nH]2)ccc1Cl`, the concentration for half-maximal inhibition (IC50) in [4] is 0.1 µM; in assay [5], 1 µM; in assay [6], < 0.1 µM; in [7], 1 µM.

For the molecule `Cn1cnc(-c2cc(C(=O)O)ccn2)c1-c1ccc(OCC2CC2)cc1`, the IC50 is 1 µM in assay [8]; < 0.1 µM in assay [5]; 0.1 µM in [6]; < 0.1 µM in assay [7]; 1 µM in assay [9]; 0.1 µM in assay [10].

For `COC(=O)c1ccnc2cc(OCc3ccc(Cl)c(OC)c3)[nH]c12`, the IC50 in “cells” was < 0.1 µM.

For the molecule `Cn1cnc(-c2cc(C(=O)O)ccn2)c1`, the IC50 in [4] is < 0.1 µM; in [8] it was > 10 µM; in assay [5], < 0.1 µM; in assay [6], < 0.1 µM; in assay [7] it was < 0.1 µM; in assay [9] it was > 10 µM. In addition, the IC50 in assay [10] is < 0.1 µM.

Take `O=C(O)c1ccnc2cc(OCc3ccc(Cl)c(OC(F)(F)F)c3)[nH]c12`: the IC50 in assay [4] was 0.1 µM; in assay [5], 0.1 µM; in assay [6], < 0.1 µM; in assay [7], < 0.1 µM.

As for `O=C(O)c1ccnc(-n2ncc(CCO)c2OCc2ccc(F)cc2)c1`, the figures for the IC50 in assay [5], in assay [6] and in [7] were < 0.1 µM, 1 µM and < 0.1 µM, respectively.
